Test system: PEA2 ovarian cancer cell line
Assay: PEA2 matrix pellet tumor on egg CAM treated with Carboplatin
Type: in vivo
Details: 400 μg Carboplatin intravenous injection at E13; tumor excised from E16 egg
Method: FIGS. 1A-1C are micrographs showing bright field images of a Matrigel® pellet formed comprising 3×10^5 cells of PEA2 ovarian cancer cell line. (1A) is an image of a liquid Matrigel® placed on ParafilmTM at 37° C. for 30 minutes and allowed to solidify before being placed on the CAM of an embryonic day 9 egg (E9; pellet circumference=3-5 mm). (1B) is an image of a tumor excised from an E16 egg following engraftment with a MATRIGEL® pellet, as shown in […]). […] (1C) is images of a low-passage ovarian cancer cell line derived from ascites liquid drained from a patient which was engrafted, and the resulting tumor was excised, fixed embedded, sectioned (7 μm) and stained with either (left) hematoxylin and eosin or (right) for expression of CD44 by immunohistochemistry (tumor diameter is 0.4 cm). The ovarian cancer cell line PEA2 was embedded in a matrix pellet by resuspending 3×10^5 PEA2 cells in 15 μl Matrigel®, on ice, and pipetting onto a solid surface (Parafilm) at 37° C. for 30 minutes (FIG. 1A). The Matrigel® pellet that formed was then placed on the CAM of an E9 egg, close to an underlying CAM blood vessel junction. It was not necessary to wound the CAM surface blood vessels in order to achieve a high rate of engraftment. […] Tissue sections (7 μm thick) were cut and analyzed by histology and immunohistochemistry for cell viability, proliferation and death (FIG. 1C).

In the case of `N.N.O=C([O-])C1(C(=O)[O-])CCC1.[Pt+2]` [Carboplatin], the “tumor size compared to the original MATRIGEL pellet” value is reported as “shrunk in size”.
